The values below come from publication PMC4735769 (Cancer Medicine, 2015).

One may read the IC50 as the concentration that gives 50% inhibition.

Data set [1] relates to pediatric patients. The conditions noted are these: phase I single-agent pediatric trial; cited from earlier work.
Data set [2] in a line: sorafenib plasma pharmacokinetics (LC-MS/MS, noncompartmental). The format is in vivo, human.
Experimental: Plasma samples were analyzed by protein precipitation. Calibration curves, linear from 5 to 2500 ng/mL with an R ^2 of >0.99, were generated for each run, with patient sample concentrations back‐calculated from the corresponding regression line.
(§1) Plasma concentration‐time data for both drugs were analyzed by noncompartmental methods using Phoenix WinNonlin 6.3 (Pharsight Corp., Mountain View, CA).
Data set [3] relates to pediatric preclinical cell models. The conditions noted are these: read-out: median IC50; cited from earlier work.
Data set [4] deals with pediatric patients with relapsed solid tumors. As to the kind of experiment: phase I dose escalation of oral sorafenib and topotecan: toxicity, DLT, MTD. The note with it: osteosarcoma patient with prior doxorubicin 450 mg/m^2, on digoxin and lisinopril; cycle 2.
Experimental: Intra‐patient dose escalation was not allowed on this study. […] Total daily dose for patients was rounded to the nearest 50 mg tablet size based on patient BSA (a dosing nomogram was used to minimize inter‐patient dosing variability). Patients ingested tablets with clear liquids (2–4 ounces for children <12 and 4 ounces for ≥12 years) and while dispersion in liquid was allowed, all patients swallowed tablets.
The capsules could not be chewed, crushed, or divided and were swallowed whole. […] Vials were dispensed in light protective bags and kept refrigerated. The reconstituted formulation was drawn up in oral syringes to the prescribed volume and administered to the patient immediately after reconstitution.
This dose‐escalation study used a standard 3 + 3 design, with up to six patients being enrolled on a DL. Enrollment to subsequent DLs was determined by the number of enrolled patients, the number with DLTs, and the number at risk for DLTs.
Toxicity was graded according to the Common Terminology Criteria for Adverse Events version 4.0 (http://ctep.cancer.gov). […]
Data set [5] is described as follows: topotecan plasma pharmacokinetics, total and lactone (HPLC fluorescence, noncompartmental). The conditions noted are these: for T min: total topotecan.
Experimental: The calibration curve was linear from 0.125 to 50 ng/mL, with the regression meeting acceptable criteria, with patient samples calculated as described above.
as §1
[6] abbreviates: Cycle 1, day 28, 150 mg/m^2 (n = 8), steady state, sorafenib alone.
Where [7] appears, read: Cycle 1, day 28, 200 mg/m^2 (n = 1), steady state, sorafenib alone.
Setting [8] is: Cycle 2, day 1, 150 mg/m^2 (n = 6), steady state, with topotecan.
Where [9] appears, read: Cycle 2, day 1, 200 mg/m^2 (n = 1), steady state, with topotecan.

For the molecule `CNC(=O)c1cc(Oc2ccc(NC(=O)Nc3ccc(Cl)c(C(F)(F)F)c3)cc2)ccn1` [Sorafenib], the “dose-limiting toxicities (DLTs)” value in data set [1] is “rash and hypertension”. In addition, in data set [2] (setting [6]), the C avg amounted to 5400 ± 2600 ng/mL, the C max worked out at 6800 ± 3500 ng/mL, the C min amounted to 2900 ± 2500 ng/mL and the T max came to 4.0 ± 3.3 h. Besides, the T min in data set [2] (setting [6]) was found to be 4.6 ± 3.4 h. In data set [2] (setting [7]), this molecule displayed a C avg of 7600 ng/mL, a C min of 4900 ng/mL, a T max of 3 h and a T min of 8 h. In data set [2] (setting [8]), this molecule displayed a C avg of 4500 ± 3800 ng/mL, a C min of 3100 ± 2800 ng/mL and a T min of 4.3 ± 2.7 h. In data set [2] (setting [9]), this molecule returned a C avg of 9800 ng/mL, a C min of 6700 ng/mL and a T min of 5 h. In addition, the “dose-normalized AUC, exposure to sorafenib with vs without topotecan” value in data set [2] (cycle 1 day 28 vs cycle 2 day 1, all dose levels) was “comparable amounts of exposure”. In data set [3], the IC50 was 4.3 µM. The “left ventricular ejection fraction on restart of sorafenib” value in data set [4] was “ejection fraction again fell to grade 3”.

As for `CC[C@@]1(O)C(=O)OCc2c1cc1n(c2=O)Cc2cc3c(CN(C)C)c(O)ccc3nc2-1` [Topotecan], the “drug–drug interaction, topotecan PK profiles in presence and absence of sorafenib” value in data set [5] (cycle 1 day 1 vs cycle 2 day 1) was “no apparent drug–drug interaction”. Also, the T min in data set [5] (Cycle 1 Day 1 – 1.0 mg/m^2 (n = 3), without sorafenib) is on record as 4.7 (±1.1) h; in data set [5] (Cycle 2 Day 1 – 1.0 mg/m^2 (n = 3), sorafenib at steady state), 9.2 (±3.6) h.
